According to ChEMBL document CHEMBL1201862, “PubChem BioAssay data set” (2004):
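Method: 48-hour compound exposure of cells in 96-well plates, five concentrations, linear interpolation of endpoints. The concentration for 50% growth inhibition is given as GI50.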 Active and inactive are the calls of the source. Cut-off read from the data, not from the text of the source: active = GI50 up to about 1.1 µM and inactive = higher.

How the values were obtained:
Assay in all cases: inhibition of tumour cell growth, NCI panel, 48 h
SK-MEL-5 = system: SK-MEL-5
786-0 = system: 786-0
NCI-H23 = system: NCI-H23
A498 = system: A498
NCI-H226 = system: NCI-H226
MDA-MB-231 = system: MDA-MB-231
IGROV-1 = system: IGROV-1
Hs-578T = system: Hs-578T
CCRF-CEM = system: CCRF-CEM
TK-10 = system: TK-10
SNB-75 = system: SNB-75
EKVX = system: EKVX
OVCAR-5 = system: OVCAR-5
SK-MEL-28 = system: SK-MEL-28
SK-OV-3 = system: SK-OV-3
UO-31 = system: UO-31
M14 = system: M14
ACHN = system: ACHN
MDA-MB-435 = system: MDA-MB-435
SN12C = system: SN12C
COLO 205 = system: COLO 205
HOP-92 = system: HOP-92
SK-MEL-2 = system: SK-MEL-2
SNB-19 = system: SNB-19
SF-539 = system: SF-539
NCI-H460 = system: NCI-H460
NCI-H522 = system: NCI-H522
HT-29 = system: HT-29
UACC-62 = system: UACC-62
DU-145 = system: DU-145
CAKI-1 = system: CAKI-1
MDA-N = system: MDA-N
SF-268 = system: SF-268
A549 = system: A549
SF-295 = system: SF-295
UACC-257 = system: UACC-257
BT-549 = system: BT-549
RXF 393 = system: RXF 393
HCT-15 = system: HCT-15
HOP-62 = system: HOP-62
MCF7 = system: MCF7
OVCAR-3 = system: OVCAR-3
SW-620 = system: SW-620
MOLT-4 = system: MOLT-4
K562 = system: K562
T47D = system: T47D
RPMI-8226 = system: RPMI-8226
KM12 = system: KM12
HCT-116 = system: HCT-116
NCI/ADR-RES = system: NCI/ADR-RES
SR = system: SR
PC-3 = system: PC-3
U-251 = system: U-251
HL-60 = system: HL-60
LOX IMVI = system: LOX IMVI
OVCAR-8 = system: OVCAR-8
HCC 2998 = system: HCC 2998
OVCAR-4 = system: OVCAR-4
Malme-3M = system: Malme-3M

Measured: GI50

O=C1C=CC(O)(C#CCO)C=C1
inactive: SK-MEL-5 24.3 µM | 786-0 9.91 µM | NCI-H23 16.9 µM | A498 22.4 µM | NCI-H226 13.4 µM | MDA-MB-231 18.7 µM | IGROV-1 13 µM | Hs-578T 29.2 µM | CCRF-CEM 11.6 µM | TK-10 13.1 µM | SNB-75 21.3 µM | EKVX 18.4 µM | OVCAR-5 12.1 µM | SK-MEL-28 12.9 µM | SK-OV-3 58.1 µM | UO-31 13.5 µM | M14 19.5 µM | ACHN 13.2 µM | MDA-MB-435 12.4 µM | SN12C 15.9 µM | COLO 205 6.85 µM | HOP-92 2.59 µM | SK-MEL-2 17.4 µM | SNB-19 22 µM | SF-539 17 µM | NCI-H460 21.2 µM | NCI-H522 1.95 µM | HT-29 14.3 µM | UACC-62 15.6 µM | DU-145 16 µM | CAKI-1 4.02 µM | MDA-N 8.57 µM | SF-268 17.6 µM | A549 23.8 µM | SF-295 39.3 µM | UACC-257 14.6 µM | BT-549 12 µM | RXF 393 4.02 µM | HOP-62 30.5 µM | MCF7 4.33 µM | OVCAR-3 17 µM | SW-620 4.62 µM | MOLT-4 10.3 µM | K562 2.92 µM | T47D 15.2 µM | RPMI-8226 3.74 µM | KM12 17.5 µM | HCT-116 15.8 µM | NCI/ADR-RES 6.73 µM | SR 2.98 µM | PC-3 16.9 µM | U-251 11.6 µM | HL-60 3.17 µM | LOX IMVI 10.5 µM | OVCAR-8 13.3 µM | HCC 2998 17.5 µM | OVCAR-4 11.9 µM
2.69 µM: HCT-15

O=c1c2cc(-c3ccccc3)sc2nc2n1N=C(c1ccccc1)CS2
inactive: SK-MEL-5 20.6 µM | 786-0 13.8 µM | NCI-H23 76 µM | A498 21.4 µM | NCI-H226 30.6 µM | MDA-MB-231 39.8 µM | IGROV-1 > 10 µM | Hs-578T 8.63 µM | CCRF-CEM 57.7 µM | TK-10 40.3 µM | SNB-75 19.1 µM | EKVX 24.9 µM | OVCAR-5 > 100 µM | SK-MEL-28 23.6 µM | SK-OV-3 10.6 µM | UO-31 62.2 µM | ACHN 11.4 µM | MDA-MB-435 37.5 µM | SN12C 27 µM | COLO 205 79.3 µM | HOP-92 12.1 µM | SF-539 27.9 µM | NCI-H460 25.1 µM | NCI-H522 22.4 µM | HT-29 > 10 µM | Malme-3M 33.3 µM | UACC-62 12.4 µM | DU-145 94.4 µM | CAKI-1 13.5 µM | MDA-N 34.9 µM | SF-268 24.3 µM | A549 21.4 µM | SF-295 15.5 µM | UACC-257 24.1 µM | BT-549 18.4 µM | RXF 393 > 10 µM | HOP-62 5.02 µM | MCF7 14.6 µM | OVCAR-3 18.2 µM | SW-620 69.5 µM | MOLT-4 > 100 µM | K562 > 100 µM | T47D 9.55 µM | RPMI-8226 > 100 µM | KM12 31 µM | HCT-116 34.8 µM | NCI/ADR-RES 13.4 µM | SR > 100 µM | PC-3 28.9 µM | U-251 19.7 µM | HL-60 > 100 µM | LOX IMVI 27.3 µM | OVCAR-8 32.1 µM | HCC 2998 36.5 µM | OVCAR-4 15.8 µM
84.3 µM: HCT-15

CC1=NC(C)(C)[N+]([O-])=C1
active: SNB-75 0.0718 µM | SR 0.001 µM
inactive: SK-MEL-5 > 10 µM | 786-0 > 10 µM | NCI-H23 > 10 µM | A498 > 10 µM | NCI-H226 > 10 µM | MDA-MB-231 > 10 µM | IGROV-1 > 10 µM | Hs-578T > 10 µM | CCRF-CEM > 10 µM | TK-10 > 10 µM | EKVX > 10 µM | OVCAR-5 > 10 µM | SK-MEL-28 > 10 µM | SK-OV-3 > 10 µM | UO-31 > 10 µM | M14 > 10 µM | ACHN > 10 µM | MDA-MB-435 > 10 µM | SN12C > 10 µM | COLO 205 > 10 µM | HOP-92 > 10 µM | SK-MEL-2 > 10 µM | SNB-19 > 10 µM | SF-539 > 10 µM | NCI-H460 > 10 µM | NCI-H522 > 10 µM | HT-29 > 10 µM | Malme-3M 8.73 µM | UACC-62 > 10 µM | DU-145 > 10 µM | CAKI-1 > 10 µM | MDA-N > 10 µM | SF-268 > 10 µM | A549 > 10 µM | SF-295 > 10 µM | UACC-257 > 10 µM | BT-549 > 10 µM | RXF 393 > 10 µM | HOP-62 > 10 µM | MCF7 > 10 µM | OVCAR-3 > 10 µM | SW-620 > 10 µM | MOLT-4 > 10 µM | K562 > 10 µM | T47D > 10 µM | RPMI-8226 > 10 µM | KM12 > 10 µM | HCT-116 > 10 µM | NCI/ADR-RES > 10 µM | PC-3 > 10 µM | U-251 > 10 µM | HL-60 > 10 µM | LOX IMVI > 10 µM | OVCAR-8 > 10 µM | HCC 2998 > 10 µM
> 10 µM: HCT-15
